Results: US20080248008A1, “Inhibitors of Protein Kinase a Anchoring” (priority 2004, published 2008)

Legend:
[1] = test system: human peripheral blood T cells; test: Flow cytometry of cell death/apoptosis in activated T cells; type: cell-based
Procedure: Flow cytometry. Negatively selected CD3^+ T cells cultured in flat-bottom, 96-well plates (Costar; 0.2×10^6 cells/well) were activated with OKT-3 (4 ng/μl) for […] at 37° C., crosslinked with F(ab′)2 fragments (39 μg/ml) and thereafter incubated with arginine-coupled peptides at 0-50 μM. For analyzing the DNA content, the cells were incubated further for 36-40 hours and thereafter washed in PBS, fixed in […], permeabilized in FACS Permeabilizing Solution (BD BioSciences, San Jose, Calif.) for 10 min and washed in PBS containing 1% BSA and 100 μg/ml RNase prior to being stained with propidium iodide (PI, Cat. No. 51-66211E BD Biosciences Pharmingen, San Diego, Calif., USA) (25 μg/ml) for 15 min 37° C. The cells were washed twice in PBS and fixed in 1% paraformaldehyde before flow cytometry (FACSCalibur, BD Biosciences, San Jose, Calif.) and subsequent analysis using FlowJo software (Tree Star, San Carlos, Calif.). For analyzing apoptosis and necrosis, the cells were incubated further for 18 hours and thereafter washed in PBS, fixed in 1% paraformaldehyde and washed with annexin binding buffer (Cat. No. 51-66121E, BD Biosciences) prior to being stained with Annexin V (3 μl to 50 μl volume, Cat. No. 556419, BD Biosciences Pharmingen) and PI (3 μg/ml) for 20 min on ice. The cells were washed twice in PBS and fixed in 1% paraformaldehyde before being analyzed on a flow cytometer (FACSCalibur, BD Biosciences, San Jose, Calif.) and analyzed using FlowJo software (Tree Star, San Carlos, Calif.).
To test whether MEME3-Arg11 induces cell death or apoptosis in human peripheral blood T cells, activated T cells treated with increasing doses of MEME3-Arg11 were analysed by forward scatter/sideward scatter (FSC/SSC) in a fluorescence-activated cell sorter (FACS). […] Apoptosis was also assessed by Annexin V^FITC labeling under the same experimental conditions. […] The effect of the peptides on cellular DNA content was also measured by flow cytometry after permeabilization of the fixed cells and PI-staining.
Cell death was also analysed by monitoring PS externalization by Annexin V binding and destruction of the cellular membrane by PI staining using FACS.

[2] = target: T1, PKA-RIα (Mus musculus, UniProt Q9DBC7); test: Immunofluorescence of PKA-RIα at mitochondria in Y1 adrenal cells; type: cell-based
T1 construct: host or cells: mouse Y-1 adrenocortical cells
Procedure: Mouse adrenocortical Y1 cells were obtained from ATCC (Cat. No. CCL-79) and maintained in DMEM/HAM'S F-12 (Cat. No. E15-813, PAA Laboratories GmbH, Pasching, Austria) supplemented with 100 μg/ml streptomycin, 100 U/ml penicillin and 10% (v/v) fetal calf serum in a humidified atmosphere of 5% CO2 and split by trypsination at less than 80% confluence.
Immunofluorescence analysis of cells was performed as previously described (Collas, P. et al., 1996, J. Cell Biol. 135, 1715-1725). RI was detected by using an anti-RI monoclonal antibody (Transduction Laboratories) as a primary antibody at a […] and Alexa-488 as a secondary antibody (1:600, Goat anti Mouse IgGs, Molecular Probes). Immunofluorescence was performed on Y1 cells attached to collagen/fibronectin coated coverslips. Mitochondria were stained using MitoTracker Red CMXRos (Molecular Probes) in fresh medium with incubation at 37° C. for 30 min prior to cell fixation. All cells were washed in PBS, fixed with 3% paraformaldehyde and permeabilised using 0.1% Triton X-100. Proteins were blocked in 2% BSA/PBST prior to antibody labeling. […] Alternatively, fluorescently labeled cells were examined using a Leica TCS SP1 confocal fluorescence microscope (Leica, Heidelberg, Germany) equipped with an Ar (488 nm) and two He/Ne (543 and 633 nm) laser lines. […]

[3] = target: T2, RI (A98S) (Bos taurus, UniProt P00514, A98S); test: R-overlay (solid-phase binding) of 32P-labelled RI on membrane-synthesized peptides; parameters: species or system bovine
T2 construct: made in house; host or cells: E. coli BL21 (B121 [sic])
Procedure: Autospot Peptide Array. Peptide arrays were synthesized on cellulose paper by using an Autospot Robot ASP222 (ABiMED, Langenfeld, Germany) as described (Frank, R., 1992, Tetrahedron 48, 123-132) or Multipep automated peptide synthesizer (INTAVIS Bioanalytical Instruments AG, Koeln, Germany) as described (Frank, R., 1992, Tetrahedron 48, 123-132).
R-overlay. R-overlays were conducted as described, using ^32P-labeled recombinant murine RII (Hausken, Z. E., et al., 1998 in Protein Targeting Protocols, ed. Clegg, R. A. (Humana, Totowa, N.J.), Vol. 88, pp. 47-64) or recombinant bovine RI (A98S) or by cold RI-overlay where bound RIα was detected by Western blot. Cold RI-overlay was performed by incubating the membranes with 250 nM RI overnight at 4° C., then the membranes were washed five times in TBST for 5 min. Detection of RI was performed using an anti-RI rabbit polyclonal antibody (Santa Cruz) at a concentration of 0.2 μg/μl for 1 hour at 4° C. Then the membranes were washed five times for 5 minutes in PBS followed by incubation with HRP-conjugated anti-rabbit IgGs (1:5000) for 1 hour at 4° C. The membranes were washed in PBS as described above before detection by Supersignal West Dura Extended Duration Substrate (Pierce).
Densitometric analysis. The densitometric analysis was performed using Scion Image (www.scioncorp.com) (Scion Coorperation, Mo., USA) or Quantity One version 4.5.0, (BioRad).

[4] = activated T cells, increasing doses

T2 sequence (P00514 whole entry A98S): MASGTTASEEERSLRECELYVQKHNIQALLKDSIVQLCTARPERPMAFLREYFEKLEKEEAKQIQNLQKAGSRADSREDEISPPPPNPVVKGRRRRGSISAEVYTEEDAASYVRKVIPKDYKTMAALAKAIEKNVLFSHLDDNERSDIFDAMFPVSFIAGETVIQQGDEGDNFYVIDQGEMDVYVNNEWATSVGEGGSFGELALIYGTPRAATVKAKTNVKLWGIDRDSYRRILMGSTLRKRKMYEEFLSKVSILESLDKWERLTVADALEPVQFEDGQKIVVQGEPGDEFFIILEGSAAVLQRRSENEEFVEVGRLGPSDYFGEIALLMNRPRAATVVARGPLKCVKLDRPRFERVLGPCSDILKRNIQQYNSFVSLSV

## LEQYANQLADQIIKEATERRRRRRRRRrr [MEME3-Arg11]
[1]; [4]
  annexin V binding: no increase in annexin V binding, but rather a small decrease
  morphological changes (FSC/SSC): no morphological changes characteristic of apoptosis
[1]; overnight
  late apoptotic cells (AV+/PI+): No late apoptotic cells (AV+/PI+) were detected
[1]; permeabilized fixed cells
  DNA content (aneuploidity), PI-staining: No change in DNA content
[2]
  displacement of PKA-RIα from mitochondria: displaced from mitochondria

## CC[C@H](C)[C@H](NC(=O)[C@H](CCC(N)=O)NC(=O)[C@H](CC(=O)O)NC(=O)[C@H](C)NC(=O)[C@H](CC(C)C)NC(=O)[C@H](CCC(N)=O)NC(=O)[C@H](CC(N)=O)NC(=O)[C@H](C)NC(=O)[C@H](Cc1ccc(O)cc1)NC(=O)[C@H](CCC(N)=O)NC(=O)[C@H](CCC(=O)O)NC(=O)[C@@H](N)CC(C)C)C(=O)N[C@H](C(=O)N[C@@H](CCCCN)C(=O)N[C@@H](CCC(=O)O)C(=O)N[C@@H](C)C(=O)N[C@H](C(=O)N[C@@H](CCC(=O)O)C(=O)N[C@@H](CCCCNC(=O)c1ccc2c(c1)C(=O)OC21c2ccc(O)cc2Oc2cc(O)ccc21)C(N)=O)[C@@H](C)O)[C@@H](C)CC [MEME3]
[3]; 500 nM peptide in solution
  competition of RI-binding to membrane-bound MEME3: competed the RI-binding
[3]; densitometry of autoradiographs, n=3, higher
  affinity for RI compared to that of PDSM: 1.9 times
[3]; peptides on membrane, qualitative
  RI binding (RI-32P-overlay, autoradiography): bound with high affinity to RIα
